Assay results reported in patent US7112598B2, “κ opioid receptor agonist comprising 2-phenylbenzothiazoline derivative” (Santen Pharmaceutical Co., Ltd., priority 2002, dated 2006).
Counter-ions that a name gives are not always drawn.

Key:
human κ opioid receptor = human κ opioid receptor (Homo sapiens, UniProt P41145); assay: κ opioid receptor agonist activity test in GTP binding activity measurement system ([35S]GTPγS binding); format: biochemical; details: test compound concentration 10^−9 M, binding of 10^−6 M (−)-U50488 = 100%, human κ opioid receptor membrane preparation, average of duplicate
Sequence of human κ opioid receptor (P41145 whole entry): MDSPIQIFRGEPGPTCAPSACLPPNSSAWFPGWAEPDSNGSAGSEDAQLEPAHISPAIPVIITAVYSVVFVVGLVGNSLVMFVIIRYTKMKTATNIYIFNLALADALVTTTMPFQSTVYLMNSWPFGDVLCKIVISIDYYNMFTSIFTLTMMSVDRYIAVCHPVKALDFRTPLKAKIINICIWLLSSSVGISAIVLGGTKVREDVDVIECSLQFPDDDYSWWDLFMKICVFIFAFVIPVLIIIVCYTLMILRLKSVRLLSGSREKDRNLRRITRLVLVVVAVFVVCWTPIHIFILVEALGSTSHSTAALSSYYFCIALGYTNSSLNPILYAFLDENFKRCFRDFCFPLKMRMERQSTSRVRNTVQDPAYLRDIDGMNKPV
Description: 1. κ Opioid Receptor Agonist Activity Tests in GTP Binding Activity Measurement System
Jinmin Zhu et al. reported a method of evaluating agonist activities of drugs on a κ opioid receptor wherein guanosine 5′-triphosphate (GTP) radiolabelled with a human κ opioid receptor is used in J. Pharmaco. Exp. Ter., 282, 676–684 (1997). κ opioid receptor agonist activities (actions) of test compounds were evaluated according to the method described in the above-mentioned literature.
N-2-Hydroxyethylpiperazine-N′-2-ethanesulfonic acid (HEPES, 4.77 g), magnesium chloride hexahydrate (2.03 g), sodium chloride (5.84 g), disodium […] (EDTA•2Na, 0.37 g), DL-dithiothreitol (DTT, 0.15 g) and bovine serum albumin (BSA, 1.0 g) were dissolved in ultrapure water, pH was adjusted to 7.4 with sodium hydroxide, and further ultrapure water was added to the mixture so that a total amount was one liter to prepare a incubation buffer.
Nine volume of the incubation buffer was added to one volume of dimethyl sulfoxide (DMSO) to prepare a 10% DMSO-incubation buffer.
Tris(hydroxymethyl)aminomethane hydrochloride (TRIZA-HCl, 66.1 g) and Tris(hydroxymethyl)aminomethane (TRIZA-Base, 9.7 g) were dissolved in ultrapure water so that a total amount was 10 liters to prepare a 50 mM Tris-hydrochloric acid buffer (pH 7.4).
A human κ opioid receptor membrane preparation (100 unit/ml) was diluted 60 times with the incubation buffer under ice-cold to prepare a human κ opioid receptor membrane preparation solution. The membrane preparation solution was preserved under ice-cold.
A test compound was dissolved in 100% DMSO to prepare a 10^−3 M test compound solution, and then the incubation buffer was added to the 10^−3 M test compound solution to prepare a 10^−4 M test compound solution. Next, the 10% dimethyl sulfoxide-incubation buffer was added to the 10^−4 M test compound solution to prepare a 10^−5 M, 10^−6 M, 10^−7 M, 10^−8 M or 10^−9 M test compound solution.
A drug (−)-U50488 (J. Pharmacol. Exp. Ther., 224, 7–12 (1983)), which is known as a κ opioid receptor agonist, was used as a positive control drug in the tests.
(−)-U-50488 was dissolved in 100% DMSO to prepare a 10^−3 M positive control drug solution, and then the incubation buffer was added to the 10^−3 M positive control drug solution to prepare a 10^−4 M positive control drug solution. Next, the 10% DMSO-incubation buffer was added to the 10^−4 M positive control drug solution to prepare a 10^−6 M positive control drug solution.
GDP was dissolved in ultrapure water to prepare a 10^−3 M GDP solution, and the incubation buffer was added to the 10^−3 M GDP solution to prepare a 10^−5 M GDP solution.
10^−3 M [^35S]GTPγS was diluted with the incubation buffer to prepare 10^−9 M radiolabelled reagent.
• 1. The incubation buffer (50 μl), the 10^−5 M GDP solution (50 μl), the human κ opioid receptor membrane preparation solution (300 μl), the test compound solution and the 10^−9 M radiolabelled reagent (50 μl) were put into a glass tube, and then the mixture was incubated at 30° C. for 60 minutes. • 2. The 50 mM Tris-hydrochloric acid buffer (pH 7.4) was added to the mixture to stop the reaction, the reaction mixture was suction-filtered with a GF/B filter, and then the residue on the GF/B filter was washed with the 50 mM Tris-hydrochloric acid buffer (3 ml) three times. • 3. The GF/B filter was air-dried, and then the residue on the GF/B filter was taken out with an antomatic dispenser and transfered into a vial. • 4. Scintisol EX-H (5 ml) was introduced into the vial to prepare a sample solution, and then radioactivity in the sample solution was measured with a liquid scintillation counter for one minute. The radioactivity was expressed in “cpm” (counts per minute). Calculation Formula of κ Opioid Receptor Agonist Activity
Each agonist activity of the test compound on the κ opioid receptor was expressed in [^35S]GTPγS binding % when [^35S]GTPγS binding of 10^−6 M (−)-U50488 was 100%. […]

[1] = tested on: mouse acetic acid writhing; assay: Antinociceptive action test by mouse acetic acid writhing method; format: in vivo; details: 30 mg/kg oral, 20 min before 0.7% acetic acid i.p., writhing counted 10 to 20 minutes after acetic acid, vs vehicle group, average of seven samples; for inhibition in vivo at 30 mg/kg: read-out: Inhibition rate (%)
Description: 2. Antinociceptive Action Tests by Mouse Acetic Acid Writhing Method
Accordingly, antinociceptive action tests of test compounds were carried out using the mouse acetic acid writhing method, and analgesic effects of the test compounds were evaluated.
Twenty minutes after oral administration of the test compound (30 mg/kg), the 0.7% acetic acid solution was administered intraperitoneally in a rate of 0.1 ml per 10 g of mouse weight.
Inhibition rates were calculated according to the following equation.
The antinociceptive action of the test compound was expressed in an inhibition rate to writhing numbers of a vehicle group.

Row | Compound | [^35S]GTP γ S binding % (human κ opioid receptor) | Inhibition rate (%) [1] | [^35S]GTP γ S binding % (human κ opioid receptor; Hydrochloride) | also measured
1 | COc1ccc(OC(C)CCN(CCO)C(C)C)c(C2Sc3cc(Cl)ccc3N2C(C)=O)c1 (stereo not shown) [Compound No. 7-2, 3-Acetyl-6-chloro-2-[2-(3-(N-(2-hydroxyethyl)-N-isopropylamino)-1-methylpropoxy)-5-methoxyphenyl]benzothiazoline Hydrochloride] | 62.9% | 70.0% |  | 
2 | COc1ccc(OCCCN(CCO)C(C)C)c(C2Sc3cc(Cl)ccc3N2C(C)=O)c1 (stereo not shown) [Compound No. 3-2, 3-Acetyl-6-chloro-2-[2-(3-(N-(2-hydroxyethyl)-N-isopropylamino)-propoxy)-5-methoxyphenyl]benzothiazoline Hydrochloride] |  |  | 66.5% | Inhibition rate (%) ([1]; Hydrochloride, 30 mg/kg): 76.1%
3 | CCOCCN(CCCOc1ccc(OC)cc1C1Sc2cc(Cl)ccc2N1C(C)=O)C(C)C (single isomer, unassigned; (+)) [Compound No. 9-3, (+)-3-Acetyl-6-chloro-2-[2-(3-(N-(2-ethoxyethyl)-N-isopropylamino)-propoxy)-5-methoxyphenyl]benzothiazoline Hydrochloride] |  |  | 117.5% | Inhibition rate (%) ([1]; Hydrochloride, 30 mg/kg): 100.0%
4 | COCCN(CCCOc1ccc(OC)cc1C1Sc2cc(Cl)ccc2N1C(C)=O)C(C)C.Cl (single isomer, unassigned; (+)) [Compound No. 9-1, (+)-3-Acetyl-6-chloro-2-[2-(3-(N-isopropyl-N-(2-methoxyethyl)amino)-propoxy)-5-methoxyphenyl]benzothiazoline Hydrochloride] |  |  | 93.2% | inhibition in vivo at 30 mg/kg [1]: 97.7%
5 | COc1ccc(OCCCN(CCO)C(C)C)c(C2Sc3ccc(Cl)cc3N2C(C)=O)c1 (stereo not shown) [Compound No. 5-3, 3-Acetyl-5-chloro-2-[2-(3-(N-(2-hydroxyethyl)-N-isopropylamino)-propoxy)-5-methoxyphenyl]benzothiazoline Hydrochloride] | 51.2% | 51.6% |  | 
6 | COc1ccc(OCCCN(C)C(C)C)c(C2Sc3cc(Cl)ccc3N2C(C)=O)c1 (single isomer, unassigned; (+)) [Compound No. 9-12, (+)-3-Acetyl-6-chloro-2-[2-(3-(N-isopropyl-N-methylamino)propoxy)-5-methoxyphenyl]benzothiazoline Hydrochloride] | 107.9% | 57.8% |  | 
7 | COCCOCOCCN(CCCOc1ccc(OC)cc1C1Sc2cc(Cl)ccc2N1C(C)=O)C(C)C (stereo not shown) [Compound No. 20-2, 3-Acetyl-6-chloro-2-[2-(3-(N-isopropyl-N-(2-(2-methoxyethoxymethoxy)-ethyl)amino)propoxy)-5-methoxyphenyl]benzothiazoline] | 50.5% | 81.7% |  | 
8 | COc1ccc(OCCCN(CCO)C(C)C)c(C2Sc3cc(Cl)ccc3N2C(C)=O)c1 (single isomer, unassigned; (+)) [Compound No. 9-2, (+)-3-Acetyl-6-chloro-2-[2-(3-(N-(2-hydroxyethyl)-N-isopropylamino)-propoxy)-5-methoxyphenyl]benzothiazoline Hydrochloride] |  |  | 103.9% | Inhibition rate (%) ([1]; Hydrochloride, 30 mg/kg): 81.2%
9 | COCOCCN(CCCOc1ccc(OC)cc1C1Sc2cc(Cl)ccc2N1C(C)=O)C(C)C (stereo not shown) [Compound No. 20-1, 3-Acetyl-6-chloro-2-[2-(3-(N-isopropyl-(N-(2-methoxymethyloxy-ethyl))amino)propoxy)-5-methoxyphenyl]benzothiazoline] | 65.1% | 94.8% |  | 
10 | CCOCCN(CCCOc1ccc(OC)cc1C1Sc2cc(Cl)ccc2N1C(C)=O)C(C)C (stereo not shown) [Compound No. 3-33, 3-Acetyl-6-chloro-2-[2-(3-(N-(2-ethoxyethyl)-N-isopropylamino)-propoxy)-5-methoxyphenyl]benzothiazoline Hydrochloride] |  |  | 75.8% | Inhibition rate (%) ([1]; Hydrochloride, 30 mg/kg): 99.5%
11 | CCOCCN(CCCOc1ccc(OC)cc1C1Sc2cc(Cl)ccc2N1C(C)=O)C(C)C (single isomer, unassigned; (-)) [Compound No. 10-3, (−)-3-Acetyl-6-chloro-2-[2-(3-(N-(2-ethoxyethyl)-N-isopropylamino)-propoxy)-5-methoxyphenyl]benzothiazoline Hydrochloride] |  |  | 55.7% | 
12 | COCCN(CCCOc1ccc(OC)cc1C1Sc2cc(Cl)ccc2N1C(C)=O)C(C)C (stereo not shown) [Compound No. 3-25, 3-Acetyl-6-chloro-2-[2-(3-(N-isopropyl-N-(2-methoxyethyl)amino)-propoxy)-5-methoxyphenyl]benzothiazoline Hydrochloride] | 67.9% | 91.0% |  | 
13 | COc1ccc(OCCCN(C)CCO)c(C2Sc3cc(Cl)ccc3N2C(C)=O)c1 (single isomer, unassigned; (+)) [Compound No. 9-16, (+)-3-Acetyl-6-chloro-2-[2-(3-(N-(2-hydroxyethyl)-N-methylamino)-propoxy)-5-methoxyphenyl]benzothiazoline Hydrochloride] | 57.2% |  |  | 
14 | COc1ccc(OCCCN2CCC[C@H]2CO)c(C2Sc3cc(Cl)ccc3N2C(C)=O)c1 (stereo partly drawn) [Compound No. 3-12, 3-Acetyl-6-chloro-2-[2-(3-((2S)-2-hydroxymethylazolan-1-yl)propoxy)-5-methoxyphenyl]benzothiazoline Hydrochloride] | 75.6% |  |  | 
15 | COc1ccc(OCCCN(Cc2ccco2)C(C)C)c(C2Sc3cc(Cl)ccc3N2C(C)=O)c1 (stereo not shown) [Compound No. 3-38, 3-Acetyl-6-chloro-2-[2-(3-(N-(furan-2-ylmethyl)-N-isopropylamino)-propoxy)-5-methoxyphenyl]benzothiazoline Hydrochloride] |  |  | 58.4% | 
16 | CCOCCN(CCCOc1ccc(OC)cc1C1Sc2ccccc2N1C(C)=O)C(C)C (single isomer, unassigned; (+)) [Compound No. 11-1, (+)-3-Acetyl-2-[2-(3-(N-(2-ethoxyethyl)-N-isopropylamino)propoxy)-5-methoxyphenyl]benzothiazoline Hydrochloride] |  |  |  | activation at 0.001 µM (human κ opioid receptor; read-out: [^35S]GTP γ S binding %): 66.8%; inhibition in vivo at 30 mg/kg [1]: 98.3%
